Entries after “also recorded” stand apart in the source; their conditions may differ.
Columns and labels:
[1] = system: focal adhesion kinase (FAK); test: Western blot, phosphorylation of FAK; format: cell-based, mouse; details: low concentrations (0.1 & 1 mM), 5 min
Procedure: For the evaluation of phosphorylated FAK and c-Src, Western blot analyses were performed as described (15). Briefly, vascular smooth muscle cells were seeded on 10-cm dishes, treated with various concentrations of morelloflavone for 5 min, and harvested into RIPA buffer with protease inhibitor cocktails. Cleared cell lysates ([…] of protein) were incubated with anti-FAK or anti-c-Src antibodies at 4° C. for 1 hr in a final volume of 1 mL RIPA buffer, and incubated for another 1 hr with protein A/G agarose beads (Santa Cruz; SCBT sc-2003). Immunoprecipitated proteins were eluted into SDS-loading 7 buffer and subjected to 12% SDS-PAGE and immunoblotting using anti-FAK (Santa Cruz; A-17; sc-557) and anti-c-Src (Santa Cruz; SRC-2; sc-18) antibodies for total FAK and c-Src, respectively, and anti-phosphotyrosine antibody (Santa Cruz; PY-20; sc-508) for phosphorylated FAK and c-Src. Densitometric analyses were performed using Adobe Photoshop (Adobe Systems Incorporated, San Jose, Calif.).

[2] = system: Rac1; test: GTPase activation assay, Rac1; format: cell-based, mouse; details: up to 10 mM
Procedure: (§1) To assess the phosphorlyation status of ERK, […] of whole cell lysates was loaded onto SDS-PAGE, and Western blot analysis was done using anti-p-ERK (Santa Cruz; E-4; sc-7383) and anti-ERK (Santa Cruz; K-23; sc-94) antibodies. To detect active RhoA, Rac1 and Cdc42, generated GST-tagged RhoA binding domain of Rhotekin protein (GST-Rhotekin-RBD) and GST-tagged p21-binding domain of p21-activated kinase 1 (PAK1)(GST-PAK1-PBD) were first generated. Briefly, E. coli BL21 cells transformed with pGEX4T-PAK1-PBD or pGEX4T-Rh,otekin-RBD were grown at 37° C. and expression of recombinant protein was induced by addition of 0.1 mM IPTG for 3 hours. Cells were resuspended in lysis buffer (50 mM Tris-HCl, pH 8.0, 10% glycerol, 20% sucrose, 2 mM DTT, 1 mg/ml leupeptin, 1 mg/ml pepstatin, and 1 mg/ml aprotinin), sonicated, and centrifuged at 4° C. for 30 min at 45,000 g. The supernatant was incubated with glutathione sepharose 4B beads (GE-Amersham, Piscataway, N.J.) for 1 hour at 4° C., and then washed 3 times in lysis buffer. Using these GST-proteins, GTPase activation assays were performed as described. […]

[3] = system: vascular smooth muscle cells; test: Scratch wound cell migration assay; format: cell-based, mouse; details: for migration index: 18 hrs
Procedure: (§2) Mouse vascular smooth muscle cells, isolated as described (13), were maintained in 231 media (Cascade Biologics, Portland, Oreg.) supplemented with SMGS (Cascade Biologics) in a humidified incubator at 37° C. with 5% CO2. Cells from passages 4-9 were used in all experiments. All experiments were performed in subconfluent, unsynchronized cells growing in SMGS except for the lamellipodium formation assay.
Vascular smooth muscle cells that had been grown to confluence in 6-well culture plates were scratched with a sterile […] pipette tip and exposed to various concentrations of morelloflavone. The cells were allowed to migrate onto the plastic surface for 18 hrs and photographed. A migration index was determined based on the number of cells that migrated onto 1 mm^2 free plastic surface, using the Image J software (NIH).

[4] = Body weight in atherosclerosis study; format: in vivo, mouse
Procedure: Twenty four (24) 8 week old Ldlr^−/−Apobec1^−/− mice were randomly assigned to either control group (normal rodent chow, Lab Diet, Richmond, Ind., N=12) or morelloflavone group (normal rodent chow supplemented with 0.003% (w/w) morelloflavone, N=12). The 0.003% (w/w) morelloflavone corresponds to approximately 4 mg/kg morelloflavone for 30 gram animals that consume 4 grams of chow. Animals were housed individually in an air-conditioned room with 12-h light/dark cycle with access to food and water. Body weight of these mice was monitored monthly. After 8 months, animals were sacrificed for analyses of atherosclerosis. Just prior to the sacrifice, blood was sampled from the heart and collected into micro-centrifuge tubes containing EDTA. The entire aortae were excised. All animal experimentation protocols were performed according to the protocol approved by the Institutional Animal Care and Use Committee (IACUC) of the University of Texas Health Science Center at Houston, in accordance with the National Institutes of Health guidelines.

[5] = system: RhoA; test: GTPase activation assay, RhoA; format: cell-based, mouse; details: 0.1 mM; low concentrations 0.1 & 1 mM
Procedure: as §1

[6] = system: vascular smooth muscle cells; test: Invasion assay (modified Boyden chamber); format: cell-based, mouse; details: 1 mM morelloflavone, 8-hour incubation
Procedure: as §2
The lower chambers of the ChemoTx® Disposable Chemotaxis System (NeuroProbe, Gaithersburg, Md.) were filled with […] of SMGS diluted in 231 medium at the appropriate concentrations (0-10%). A filter membrane ([…] pore size) was positioned over the lower wells, and 1×10^4 vascular smooth muscle cells suspended in […] 231 medium (without morelloflavone) were placed on the test sites within circular hydrophobic masks on the upper side of the filter plate (n=5 each). […] After additional 8-hour incubation, cells on the upper surface of the membrane, i.e., cells that had not migrated, were scraped off by Q-tips, and cells that had migrated to the lower surface were fixed and stained by hematoxylin solution and counted. Migrated cell 6 numbers were calculated as the number of cells migrated per 8.0 mm^2 test site surface area.

With `O=C1c2c(O)cc(O)cc2O[C@H](c2ccc(O)cc2)[C@H]1c1c(O)cc(O)c2c(=O)cc(-c3ccc(O)c(O)c3)oc12` [morelloflavone, 5,7, 4′, 5″, 7″, 3″, 4″-heptahydroxy-[3,8″]-flavonylflavanone] the “phosphorylation of FAK” value [1] was “inhibited; also recorded: robustly decreased phosphorylation; also recorded: blocks”, the “activation of Rac1” value [2] was “no significant effect; also recorded: without affecting” and the “effect on vascular smooth muscle cell migration” value ([3]; 0-100 mM, effect from 1 mM (1 μM)) was “inhibited in a dose-dependent fashion; also recorded: profound effects on migration; also recorded: blocks”. The migration index ([3]; 1 mM morelloflavone) was 487.6±36.9 cells/mm^2, the migration index ([3]; 10 mM morelloflavone) was 411.3±39.5 cells/mm^2 and the migration index ([3]; 100 mM morelloflavone) was 191.86±32.8 cells/mm^2. For the same molecule, the Body weight ([4]; 1 month) was 22.6 ± 1.5 gm, the Body weight ([4]; 2 months) was 24.0 ± 1.6 gm and the Body weight ([4]; 3 months) was 25.4 ± 1.5 gm. The Body weight ([4]; 4 months) was 26.2 ± 1.5 gm, the Body weight ([4]; 5 months) was 26.8 ± 1.3 gm and the Body weight ([4]; 6 months) was 27.5 ± 1.7 gm. It also gave a Body weight ([4]; 7 months) of 28.2 ± 2.5 gm, a Body weight ([4]; Final (8 months)) of 28.4±2.3 gm and a Body weight ([4]; Final (8 months), listed as Morelloflavone) of 28.4 ± 2.3 gm. The Body weight ([4]; Initial (0 month), Ldlr−/−Apobec1−/− mice, N = 12) was 22.3 ± 1.4 gm, the “activation of RhoA” value [5] was “inhibited; also recorded: blocks the activation” and the “effect on vascular smooth muscle cell migration/invasion towards SMGS” value [6] was “significantly blocked; also recorded: blocks”.
